Assays:
[1] = tested on: Neurodegenerated cells (Parkinson's disease model); assay: Adenosine triphosphate (ATP) assay, Parkinson's disease model; type: cell-based, human; settings: PD model; probucol 20 μM, SPQ 10 μM, HA-1 10 μM, L-Dopa 50 μM, 24 hours
Experimental: (§1) Perinatal tissue derived human stem cell model for Parkinson's disease (PD) was prepared using proprietary protocols to test the effect of new drug entities. Drug treatment was for 24 hours in all the assays.
Impaired energy metabolism and reduced ATP levels are common features of PD. Using the stem cell derived PD model, we measured ATP levels in drug treated (probucol, SPQ and HA-1 and L-Dopa) cells and compared with neurodegenerated (ND) cells.
Neurodegenerated cells were incubated with probucol (20 μM), SPQ (10 μM), HA-1 (10 μM) and L-Dopa (50 μM) for 24 hours (p<0.05; *p<0.05, **p<0.001, ***p<0.0001, ns=non-significant, n=3).

[2] = tested on: Neurodegenerated cells (Parkinson's disease model); assay: Immunocytochemical localization of PD specific and neuronal markers; type: cell-based, human; settings: fluorescence micrographs
Experimental: as §1
For further confirmation and protein localization of neuronal, dopaminergic and PD specific neurodegenerative markers, we performed immunolocalization for synapsin I, Nurr1, TH and α-synuclein respectively.
Fluorescence micrographs of synapsin 1 positive neuronal cells were obtained and the effects of probucol, SPQ and HA-1 on neurodegeneration model with L-Dopa as positive control were compared.
Fluorescence micrographs of Nurr1 positive dopaminergic neuronal cells were obtained and the effects of probucol, SPQ and HA-1 on neurodegeneration model with L-Dopa as positive control were compared.
Fluorescence micrographs of TH positive dopaminergic neuronal cells were obtained and the effects of probucol, SPQ and HA-1 on neurodegeneration model with L-Dopa as positive control were compared.
Fluorescence micrographs of α-synuclein immunolocalization were obtained and the effects of probucol, SPQ and HA-1 on neurodegeneration model with L-Dopa as positive control were compared.

[3] = tested on: diabetic db/db mice; assay: Diabetic phenotype: plasma glucose, triglycerides, insulin, cholesterol in diabetic db/db mice; type: in vivo; settings: for plasma cholesterol: 14 and 28 weeks of age (FIGS. 23G and 23H)
From the text: (§2) In this study, 4-5 week old diabetic db/db mice were put onto a diet containing probucol 0.1% (w/w) or HA-1 0.2% (w/w) for either 10 or 24 weeks, till the age of 14 or 28 weeks, respectively. Passive avoidance test was used to assess short-term memory. Subsequently, the mice were sacrificed to obtain plasma and brain tissue samples for further analyses.
Elevation in plasma glucose, triglycerides and insulin are typical signs of diabetes, with cholesterol to lesser extent. Levels of plasma glucose, plasma triglyceride, plasma insulin, and plasma cholesterol levels were measured at 14 weeks of age and at 28 weeks of age (FIG. 23) (*p<0.05, **p<0.01, ***p<0.001, ****p<0.0001, n=12).

[4] = tested on: OC-1 cells; assay: Cobalt chloride hypoxia assay; type: cell-based; settings: cells pre-treated with CoCl2 at 100 μM for 24 hours, microscopic examination
Experimental: This assay is used to determine whether an intervention can reverse hypoxic-induced cell death brought about by cobalt chloride. For this assay, cells are pre-treated with CoCl2 at 100 μM for 24 hours, followed by microscopic examination of cell morphology and viability.

[5] = tested on: diabetic db/db mice; assay: Small intestinal apoB and Aβ in diabetic db/db mice; type: in vivo
From the text: as §2

[6] = tested on: diabetic db/db mice; assay: BBB integrity (IgG extravasation) in diabetic db/db mice; type: in vivo; settings: for IgG extravasation in CTX: 28-week old
From the text: as §2

[7] = tested on: rat model of repeated sub-concussion; assay: Rotarod test, rat model of repeated sub-concussion (Experimental Example 6); type: in vivo, Female PVG rats; settings: rats, 12-week repeated sub-concussion; probucol 0.1% w/w, HA-1 0.2% w/w in diet (FIG. 20A)
From the text: (§3) Female PVG rats aged 5-7 weeks were used. Under complete anaesthesia with isoflurane, a 25 g weight was dropped onto lambda of the skull from a 1 m height. This was repeated consecutively for 10 times per procedure. The procedure was repeated 3 times per week (i.e., Monday, Wednesday, Friday) for the duration of 12 weeks. Sham group rats received the same procedure without the weight drops. The probucol treatment group received probucol which was supplemented into the diet at 0.1% w/w. The HA-1 treatment group received HA-1 also in the diet at 0.2% w/w for the entire duration of the study.
After the completion of 12-week sub-concussion procedures, neuromotor function was tested with established rotarod and beamwalk tests. On beamwalk, the higher the slips show, the more impairment. On rotarod, the lower the latency indicates the more impairment.

[8] = tested on: rat model of repeated sub-concussion; assay: Neuronal oxidative stress (8dOHG expression), rat model of repeated sub-concussion; type: in vivo, Female PVG rats; settings: rats, 12-week repeated sub-concussion
From the text: as §3
The rats were then sacrificed to obtain brain tissue for further analyses.

[9] = tested on: Pancreatic NIT-1 β-cells; assay: MTT viability assay on pancreatic NIT-1 β-cells; type: cell-based; settings: glucose 25.5 mM (hyperglycemic); 10 μM probucol, 10 μM HA-1
Experimental: Cells were grown and processed in a Dulbecco's Modified Eagle's media with 11.5% foetal bovine serum, as per the protocols described below.
Specifically, the cells were cultured on T-75 cm^2 tissue culture flasks (Thermo Fisher Scientific®, Australia) and fed with Dulbecco's modified Eagle's medium (DMEM) (Gibco, Life Technologies, USA) supplemented with either 5.5 mM glucose or 25.5 mM glucose (Sigma Chemical Co, USA), 11.5% fetal bovine serum (Thermo Fisher Scientific, Australia), and 5% penicillin-streptomycin (Thermo Fisher Scientific, Australia). The β-cells were incubated in an environment of 5% CO2 in humidified air at 37° C. using a Nuaire NU-8500 Water Jacket CO2 Incubator (Nuaire, USA) for 72 hours.
The MTT assay for cellular mitochondrial activity is a common and an important analytical technique for determining the degree of cell viability and biological activity. Briefly, MTT was prepared as 5 mg/ml stock solution (Sigma Chemical CO, USA) in phosphate buffer, at pH 7.4 (Thermo Fisher Scientific, Australia). The undissolved residues were removed by sterile filtration. The stock solution was stored in a sterile environment at 4° C. in the dark and used within 7 days of preparation. […] Formazan was dissolved in 100 μl of dimethyl sulfoxide (DMSO) (Sigma Chemical CO, USA) via reverse pipetting and the resultant purple solution was analysed photometrically at 550 nm.

[10] = 14 weeks of age, probucol 0.1% (w/w), HA-1 0.2% (w/w) in diet

Structure (SMILES)	ATP level [1]	Nurr1 (immunolocalization) [2]	TH (immunolocalization) [2]	synapsin protein expression (immunolocalization) [2]	plasma cholesterol [3]	plasma insulin ([3]; 14 weeks of age)	plasma triglycerides ([3]; 14 weeks of age)	plasma / blood glucose [3, 10]	plasma / blood glucose ([3]; 28 weeks of age)	plasma insulin ([3]; 28 weeks of age)	plasma triglycerides ([3]; 28 weeks of age)	cell morphology [4]	small intestinal Aβ ([5]; 14 weeks of age)	small intestinal apoB ([5]; 14 weeks of age)	small intestinal Aβ ([5]; 28 weeks of age)	IgG extravasation in HPF ([6]; 14 weeks of age)	IgG extravasation in CTX [6]	IgG extravasation in HPF ([6]; 28 weeks)	rotarod latency [7]	expression of 8dOHG (oxidative stress) in HPF and CTX [8]	other results
CC(=O)O[C@@H]1CC[C@@]2(C)[C@H](CC[C@@H]3[C@@H]2CC[C@]2(C)[C@@H]([C@H](C)CCC(=O)Oc4c(C(C)(C)C)cc(SC(C)(C)Sc5cc(C(C)(C)C)c(O)c(C(C)(C)C)c5)cc4C(C)(C)C)CC[C@@H]32)C1 [HA-1, 2,6-di-tert-butyl-4-((2-((3,5-di-tert-butyl-4-hydroxyphenyl)thio)propan-2-yl)thio)phenyl (4R)-4-[(3R,5R,8R,9S,10S,13R,14S,17R)-3-acetoxy-10,13-dimethyl-2,3,4,5,6,7,8,9,11,12,14,15,16,17-tetradecahydro-1H-cyclopenta[a]phenanthren-17-yl]pentanoate]	Enhanced increase in ATP levels	more pronounced	more pronounced	clear restoration of synapsin expression	no beneficial effects on plasma cholesterol	significantly reduced	significantly attenuated plasma triglycerides	modest decrease in blood glucose	significantly reduced blood glucose with HA-1 presenting greater effects	lost the ameliorative effects on insulin	significantly reduced plasma triglycerides	optimal morphology	comparable or superior effects	significantly attenuated	comparable or superior effects	significantly attenuated	significantly reduced	significantly attenuated the BBB breakdown	significant increase in the latency	substantially attenuated the cerebral oxidative stress levels	accumulation of α-synuclein (immunolocalization) [2]: least expression; small intestinal apoB ([5]; 28 weeks of age): no longer seen; NIT-1 cell viability [9]: even more profound effect on ameliorating cell death
CC1(C)SC2(C=C(C(C)(C)C)C(=O)C(C(C)(C)C)=C2)C2(C=C(C(C)(C)C)C(=O)C(C(C)(C)C)=C2)S1 [SPQ, 2,4,9,11-tetrakis(1,1-dimethylethyl)-14,14-dimethyl-13,15-dithiadispiro[5.0.5.3]pentadeca-1,4,8,11-tetraene-3,10-dione]	Enhanced increase in ATP levels	more pronounced	more pronounced	clear restoration of synapsin expression	–	–	–	–	–	–	–	–	–	–	–	–	–	–	–	–	–
CC(C)(Sc1cc(C(C)(C)C)c(O)c(C(C)(C)C)c1)Sc1cc(C(C)(C)C)c(O)c(C(C)(C)C)c1 [probucol, 2,6-ditert-butyl-4-[2-(3,5-ditert-butyl-4-hydroxyphenyl)sulfanylpropan-2-ylsulfanyl]phenol]	–	more pronounced	more pronounced	clear restoration of synapsin expression	no beneficial effects on plasma cholesterol	significantly reduced	significantly attenuated plasma triglycerides	no significant effects	significantly reduced blood glucose	lost the ameliorative effects on insulin	significantly reduced plasma triglycerides	normal morphology	significantly attenuated	no significant reduction	significantly attenuated	significantly attenuated	no beneficial effects on CTX IgG extravasation	did not show BBB protection	did not show any changes	some increase of 8dOHG particularly in the CTX	NIT-1 cell viability [9]: partially offset hyperglycaemia-induced pancreatic beta cell death
